According to patent US11773081B2, “Pharmaceutical composition for preventing or treating wound, comprising indirubin derivative as active ingredient” (CK Regeon Inc., priority 2018, dated 2023):

Legend:
diabetic wound = test: Effect of treating diabetic wound (Test Example 9); type: in vivo; conditions: diabetes-induced mouse; for healing of the wound site: 0.8×0.8 cm^2 wound, 20 μL once daily for 14 days, VPA 500 mM; for re-epithelialization (H&E): 14 days
Description: 3-week-old male C57BL/6N mice (Koatech, South Korea) were used. After accustoming the mice for a week to normal feed, high-fat diet (Product Data—D12492; 60% kcal, hereinafter referred to as HFD) was given for 4 weeks. Then, a diabetes-induced animal model was prepared by intraperitoneally injecting 40 mg/kg streptozocin (Sigma) once daily for a week. The mice were kept in cages maintained at constant temperature (22±2° C.) and relative humidity (40-60%) with light/dark cycles of 12/12 hours.
6 mice of the normal control group and 6 mice per test group of the diabetes-induced animal model of Test Example 7 were prepared. The hair on the back was removed and a 0.8×0.8 cm^2 wound was made on the hair-removed region.
For the normal control group, only 20 μL of an emulsion solution (Kollipore®EL:Tween 80:PEG 400 at a mixing weight ratio of 80:6:14) was applied to the wound site once daily for 14 days. For the negative control group, only 20 μL of the emulsion solution (Kollipore®EL:Tween 80:PEG 400 at a mixing weight ratio of 80:6:14) was applied to the wound site once daily for 14 days. For the positive control group (VPA), 20 μL of a composition prepared by mixing 500 mM VPA in an emulsion solution was applied to the wound site once daily for 14 days.
For the first test group, 20 μL of A3334 (Example 1) was applied to the wound site once daily for 14 days. For the second test group, 20 μL of A3051 (Example 2) was applied to the wound site once daily for 14 days. Then, the wound site of each group was photographed and the wound area was measured (FIG. 14). On day 14, after euthanizing the mouse with carbon dioxide, the wound site tissue was harvested and the histological structure was observed.
Specifically, the wound site tissue obtained from the normal control group, the negative control group, the positive control group or the first or second test group was fixed by immersing in 4% paraformaldehyde, embedded in paraffin and then sliced into 4 μm thickness. The sliced tissue was deparaffinized, rehydrated and then stained with hematoxylin (purple) and eosin (pink) for observation of histological structure.
Specifically, the wound site tissue obtained from the normal control group, the negative control group, the positive control group or the first or second test group was fixed by immersing in 4% paraformaldehyde, embedded in paraffin and then sliced into 4 μm thickness. The sliced tissue was deparaffinized, rehydrated and then stained with Van Gieson's stain and Masson's trichrome for observation of histological structure. For the Van Gieson's staining, the sliced tissue was immersed in Weigert's solution for 10 minutes and in picrofuchsin solution for 2 minutes. For the Masson's trichrome staining, the sliced tissue was immersed in Weigert's iron hematoxylin solution for 10 minutes and in Biebrich scarlet-acid fuchsin and Aniline blue for 5 minutes each.
Specifically, the wound site tissue obtained from the normal control group, the negative control group, the positive control group or the first and second test groups was fixed by immersing in 4% paraformaldehyde and angiogenesis was observed.

mouse acute wound [1] = test: Wound healing and collagen synthesis in mouse acute wound (Test Example 2); type: in vivo
Description: The wound healing-promoting effect of the indirubin derivatives prepared in Examples 1 and 2, the indirubin derivative of Comparative Example 1 (10) and EGF, known as an existing wound healing agent, as a positive control group was investigated through animal experiments.
The hair on the back of 7-week-old C3H mouse that entered the resting period was removed and a 1.5×1.5 cm^2 wound was made on the hair-removed region. 20 μL of a vehicle (10% DMSO, 45% ethanol, 18% propylene glycol, 27% water) and the indirubin derivative of Comparative Example 1 (10) were applied to a control group and a comparison group, respectively, once daily for 12 days. For the positive control group, 100 μM EGF was applied once daily for 12 days. For a first test group, 20 μL of the indirubin derivative of Example 2 (A3051) was applied once daily for 12 days. For a second test group, 20 μL of the indirubin derivative of Example 1 (A3334) was applied once daily for 12 days.
The tissue of each experimental mouse was fixed by immersing in 4% paraformaldehyde, embedded in paraffin and then sliced into 4 μm thickness. The sliced tissue was deparaffinized, rehydrated and then stained with Masson's trichrome and Picrosirius red for evaluation of the degree of collagen synthesis. For Masson's trichrome staining, a slide was placed in Weigert's iron hematoxylin solution for 10 minutes and in Biebrich scarlet-acid fuchsin and aniline blue for 5 minutes each. For Picrosirius red staining, a slide was placed in Weigert's solution for 8 minutes and in Picrosirius red for 1 hour.

mouse acute wound [2] = test: Wound healing effect of extract and indirubin derivative mixtures in mouse acute wound (Test Example 6); type: in vivo; conditions: mouse acute wound tissue, fluorescence staining
Description: Wound healing-promoting effect was investigated after treating an animal model with the indirubin derivative of Example 1 (0.5 mM), the indirubin derivative of Example 2 (0.5 mM) or the mixtures of Examples 12 and 13 (0.5 mM indirubin derivative mixed with 1 μg/mL Euodia sutchuenensis Dode extract).
The hair on the back of 7-week-old C3H mouse that entered the resting period was removed and a 1.5×1.5 cm^2 wound was made on the hair-removed region. A sample was applied to a positive control group, once daily for 12 days. After measuring wound size of the experimental animal on days 0 and 12, the wound tissue was fixed by immersing in 4% paraformaldehyde, embedded in paraffin and then sliced into 4 μm thickness. The sliced tissue was deparaffinized, rehydrated and then the degree of re-epithelialization was compared. Masson's trichrome staining and Picrosirius red staining were conducted for evaluation of the degree of collagen synthesis. For Masson's trichrome staining, a slide was immersed in Weigert's iron hematoxylin solution for 10 minutes and in Biebrich scarlet-acid fuchsin and aniline blue for 5 minutes each. […] The sliced skin tissue was fluorescence-stained using β-catenin, PCNA, keratin 14 and collagen I antibodies and was observed using a fluorescence microscope (FIG. 9a). […]

HaCaT cells [3] = test: Cell migration of keratinocytes, Euodia sutchuenensis Dode extract and indirubin derivative mixtures (Test Example 5); type: cell-based, human; conditions: 18 hours
Description: Cell migration was compared after treating cells with the indirubin derivative of Example 1 (0.1 μM, 1 μM), the indirubin derivative of Example 2 (0.1 μM, 1 μM) or the mixtures of Examples 12 and 13 (0.1 μM and 1 μM indirubin derivative mixed with 1 μg/mL Euodia sutchuenensis Dode extract, respectively).
A non-treated control group (con), a group treated with the Euodia sutchuenensis Dode extract of Example 8 (1 μg/mL) alone (Euodia sutchuenensis Dode 1 μg/mL) and a positive control group treated with 100 μM VPA (valproic acid) were prepared.
Experiment was conducted as follows. First, HaCaT cells were cultured in a 12-well plate for 24 hours. The HaCaT cells are human keratinocytes which are known to play an important role in wound healing. DMEM containing 10% FBS was used. After the culturing for 24 hours was completed, the medium was replaced with DMEM containing 5% FBS and a scratch was made at the center of the cells using a 1000p (blue) tip. Then, after treating the scratched area with a sample, cell migration and motility was observed 18 hours later.
As the sample, the indirubin derivative of Example 1 (0.1 μM, 1 μM), the indirubin derivative of Example 2 (0.1 μM, 1 μM) or the mixtures of Examples 12 and 13 (0.1 μM and 1 μM indirubin derivative mixed with 1 μg/mL Euodia sutchuenensis Dode extract, respectively) was used. […]

mouse acute wound [4] = test: Wound healing effect of mixtures in mouse acute wound (Test Example 4); type: in vivo; conditions: C3H mouse; Example 2 0.5 mM, Example 5 2.5 mM, 5 mM; 20 μL once daily for 12 days
HaCaT cells [5] = test: Cell motility of keratinocytes, indirubin derivative and low-molecular-weight compound mixtures (Test Example 3); type: cell-based, human; conditions: HaCaT scratch; 18 hours later; methyl vanillate 5 μM, hesperidin 1 μM, quercitrin 1 μM
Description: For analysis of wound healing effect, cell motility was compared for treatment with the indirubin derivative prepared in Example 2, the methyl vanillate of Example 5, the hesperidin of Example 6, the quercitrin of Example 7 and the mixtures prepared in Examples 9-11.
HaCaT cells, which are human keratinocytes playing an important role in wound healing, were cultured in a 12-well plate for 24 hours using DMEM containing 10% FBS. Then, after replacing the medium with DMEM containing 5% FBS, a scratch was made at the center of the cells using a 1000p (blue) tip. Then, after treating the scratched area with each of the indirubin derivative prepared in Example 2, the methyl vanillate of Example 5, the hesperidin of Example 6, the quercitrin of Example 7 and the mixtures prepared in Examples 9-11 at a concentration of 1 μM or 5 μM, cell motility was observed 18 hours later.
Specifically, the concentration of the indirubin derivative prepared in Example 2, the hesperidin of Example 6 and the quercitrin of Example 7 was 1 μM, the concentration of the methyl vanillate of Example 5 was 5 μM, and the mixtures prepared in Examples 9-11 were prepared by mixing 1 μM indirubin derivative with 5 μM methyl vanillate, 1 μM hesperidin or 1 μM quercitrin.
The control group (control) means non-treated keratinocytes. […]

[6] = C3H mouse acute wound, once daily for 12 days, vs EGF

## CO/N=C1/C(=C2/C(=O)Nc3cc(Cl)c(Cl)cc32)Nc2ccccc21 [Example 2, 5,6-dichloroindirubin-3′-methoxime]
Diabetic wound
  angiogenesis around the wound site: increased angiogenesis
  healing of the wound site: healing of the wound site was promoted similarly to the normal control group
  re-epithelialization (H&E): re-epithelialization occurred quickly
Diabetic wound; vs normal, negative and positive control group (VPA)
  collagen synthesis (Van Gieson's stain, Masson's trichrome): increased collagen synthesis
Mouse acute wound [1]; C3H mouse acute wound tissue, vs control group, Comparative Example 1, positive control group
  quantity of collagen (Masson's trichrome, Picrosirius red, van Gieson's stain): remarkably increases the quantity of collagen
Mouse acute wound [1]; [6]
  re-epithelialization of acute wound: re-epithelialized comparably to or faster than the positive control group EGF
  scar-reducing effect, repair of the epidermal layer of skin: very effective in reducing scarring
Mouse acute wound [1]; C3H mouse, 1.5×1.5 cm^2 wound, 20 μL once daily for 12 days, EGF 100 μM
  wound repair effect as compared to the positive control group EGF: 2-6 times
Mouse acute wound [2]
  expression of β-catenin, PCNA, keratin 14 and collagen I: slightly lower as compared to the positive control group
HaCaT cells [3]; first value of 'respectively' (0.1 μM indirubin derivative; mixture with 1 μg/mL extract)
  recovery of cell migration rate (%) as compared to the control group: 50%
HaCaT cells [3]; second value of 'respectively' (1 μM indirubin derivative; mixture with 1 μg/mL extract)
  recovery of cell migration rate (%) as compared to the control group: 114%
Mouse acute wound [4]
  acute wound healing as compared to the control group or the positive control group: healed quickly

## COC(=O)c1ccc(O)c(OC)c1 [Example 5, Methyl vanillate, reference compound]
HaCaT cells [5]
  cell motility compared with the control group: no difference in cell motility
Mouse acute wound [4]
  acute wound healing as compared to the control group or the positive control group: healed quickly

## COc1ccc([C@@H]2CC(=O)c3c(O)cc(O[C@@H]4O[C@H](CO[C@@H]5O[C@@H](C)[C@H](O)[C@@H](O)[C@H]5O)[C@@H](O)[C@H](O)[C@H]4O)cc3O2)cc1O [Example 6, Hesperidin]
HaCaT cells [5]
  cell motility compared with the control group: no difference in cell motility

## CCCC(CCC)C(=O)O [VPA, valproic acid, reference compound]
Diabetic wound
  healing of the wound site: wound healing was delayed similarly to the negative control group
  re-epithelialization (H&E): re-epithelialization did not occur even after 14 days
